In patent US12421211B2, “Heterocyclic compounds” (Hoffmann-La Roche Inc., priority 2021, dated 2025):
In brackets after ≈: the same amount, converted by molar mass. Structures can show the parent of a compound that is named as a salt. Where two headings read alike, the source gives them in different places.

Key:
[1] = test system: Acinetobacter baumannii ATCC17961; experiment: Antimicrobial susceptibility testing: 90% growth inhibitory concentration (IC90) determination; type: cell-based; settings: Acinetobacter baumannii, ATCC17961, 16 h, read-out: ATCC 17961 IC90
Procedure, shortened: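 A. baumannii ATCC17961 at ~5×10^5 CFU/ml in Iso-Sensitest broth exposed to 10-point twofold dilutions (e.g. 50–0.097 μM final), 35±2° C. OD600 read every 20 minutes over 16h; IC50 and IC90 derived from inhibition during logarithmic growth.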

[2] = test system: Acinetobacter baumannii ATCC17978; experiment: Minimal Inhibitory Concentration (MIC) assay; type: cell-based; settings: read-out: MIC AB. ATCC17978
Experimental: Minimal Inhibitory Concentration Protocol (MIC) Assay:
Table 2 provides the in vitro potency of the compounds of present invention obtained against the strain Acinetobacter baumannii ATCC17978, which was assessed by an MIC (Minimal Inhibitory Concentration) assay as follows.
Test compounds were prepared from 10 mM DMSO stock solutions. The top dose was diluted from 10 mM to 2.5 mM by DMSO, followed by serial 2-fold 11 points dilutions in DMSO in a master plate (Greiner, Cat No: 651201). 2 μL compounds were transferred from the master plate into a new 96-well assay plate (Costar, 3599).
The growth medium […] Mueller Hinton Broth (CAMHIB) was prepared by adding 22 g powder (BD, 212322) in 1 L purified water, autoclaved, and supplemented with sterilized CaCl2 (20 mg per liter) and MgCl2 (10 mg per liter).
Vials of each of the test microorganisms were maintained frozen in the vapor phase of a liquid nitrogen freezer. Took out the bacterial strain ATCC 17978 from liquid nitrogen freezer, thawed it at room temperature, and diluted the bacterial in the CAMHB medium to achieve a final inoculum of 2×10^5 CFU/mL. 98 μL of the adjusted bacteria suspension was dispensed to the assay plate and pipetted 5 times.
Then the assay plates were incubated for 20 hours at 35±2° C. in ambient air with humidity. Following incubation, MIC […] value, the lowest concentration of drug that inhibits visible growth of the microorganism, was recorded by visual judgment of bacterial growth through magnification mirror of MIC reader, and the assay plates were photographed with Qcount system as image raw data. Meanwhile, the D600 of assay plates was recorded with SpectraMax Plus384 as GD raw data.

[3] = 90% growth inhibitory concentration, Acinetobacter baumannii ATCC17961, Iso-Sensitest broth, OD 600 nm over 16 h
[4] = Acinetobacter baumannii ATCC17978, CAMHB medium, 20 hours at 35±2° C., visual reading
[5] = Acinetobacter baumannii, ATCC17978, 20 h

SMILES | IC90 [1, 3] [nM] | MIC [2, 4] [µM] | IC90 [1] [nM] | MIC [2, 5] [µM]
COCCn1ncc(-c2ccc(-c3cnc(C(=O)Nc4ccc(C(=O)N5CCN(C(=O)C6CCCN6)CC5)c(Cl)c4)n3C)c(F)c2F)c1C (centres unmarked) [Example D29, N-[3-chloro-4-[4-(pyrrolidine-2-carbonyl)piperazine-1-carbonyl]phenyl]-5-[2,3-difluoro-4-[1-(2-methoxyethyl)-5-methyl-pyrazol-4-yl]phenyl]-1-methyl-imidazole-2-carboxamide; 2,2,2-trifluoroacetic acid] | < 20 | 0.45 (≈ 0.313 µg/mL) |  | 
COCCn1nc(C)c(-c2ccc(-c3cnc(C(=O)Nc4ccc(C(=O)N5CCN(C(=O)C[N+]6(C)C[C@@H](O)[C@H](O)C6)CC5)c(Cl)c4)n3C)c(F)c2F)c1C (racemic) [Example C12, N-[3-chloro-4-[4-[2-[(3R,4R)-3,4-dihydroxy-1-methyl-pyrrolidin-1-ium-1-yl]acetyl]piperazine-1-carbonyl]phenyl]-5-[2,3-difluoro-4-[1-(2-methoxyethyl)-3,5-dimethyl-pyrazol-4-yl]phenyl]-1-methyl-imidazole-2-carboxamide; formate] | 153 | 1.2 |  | 
COCCn1nc(C)c(-c2ccc(-c3cnc(C(=O)Nc4ccc(C(=O)N5CCN(C(=O)C6CC[N+](C)(C)CC6O)CC5)c(Cl)c4)n3C)c(F)c2F)c1C (centres unmarked) [Example D4, N-[3-chloro-4-[4-(3-hydroxy-1,1-dimethyl-piperidin-1-ium-4-carbonyl)piperazine-1-carbonyl]phenyl]-5-[2,3-difluoro-4-[1-(2-methoxyethyl)-3,5-dimethyl-pyrazol-4-yl]phenyl]-1-methyl-imidazole-2-carboxamide; formate] | 178 | 1.56 |  | 
COCCn1cc(-c2ccc(-c3cnc(C(=O)Nc4ccc(C(=O)N5CCN(C(=O)C6CC[N+](C)(C)CC6)CC5)c(Cl)c4)n3C)c(F)c2F)c(CF)n1 [Example F29, N-[3-chloro-4-[4-(1,1-dimethylpiperidin-1-ium-4-carbonyl)piperazine-1-carbonyl]phenyl]-5-[2,3-difluoro-4-[3-(fluoromethyl)-1-(2-methoxyethyl)pyrazol-4-yl]phenyl]-1-methyl-imidazole-2-carboxamide; chloride] | 280 | 4.73 |  | 
Cn1c(-c2ccc(-c3cn(C[C@H](O)CO)nc3C(F)(F)F)c(F)c2F)cnc1C(=O)Nc1ccc(C(=O)N2CCN(C(=O)C3CC[N+](C)(C)CC3)CC2)c(Cl)c1 [Example F8, N-[3-chloro-4-[4-(1,1-dimethylpiperidin-1-ium-4-carbonyl)piperazine-1-carbonyl]phenyl]-5-[4-[1-[(2S)-2,3-dihydroxypropyl]-3-(trifluoro-methyl)pyrazol-4-yl]-2,3-difluoro-phenyl]-1-methyl-imidazole-2-carboxamide; formate] |  | 1.41 |  | 
COCCn1cc(-c2ccc(-c3cnc(C(=O)Nc4ccc(C(=O)N5CCN(C(=O)C6CCNCC6O)CC5)c(C)c4)n3C)c(F)c2F)c(C)n1 (centres unmarked) [Example D22, 5-[2,3-difluoro-4-[1-(2-methoxyethyl)-3-methyl-pyrazol-4-yl]phenyl]-N-[4-[4-(3-hydroxypiperidine-4-carbonyl)piperazine-1-carbonyl]-3-methyl-phenyl]-1-methyl-imidazole-2-carboxamide; formic acid] |  |  | 199 | 1.1 (≈ 0.775 µg/mL)
COCCn1cc(-c2ccc(-c3cnc(C(=O)Nc4ccc(C(=O)N5CCN(C(=O)C6CC[N+](C)(C)CC6)CC5)c(Cl)c4)n3C)c(F)c2F)c(-c2ccccc2)n1 [Example F49, N-[3-chloro-4-[4-(1,1-dimethylpiperidin-1-ium-4-carbonyl)piperazine-1-carbonyl]phenyl]-5-[2,3-difluoro-4-[1-(2-methoxyethyl)-3-phenyl-pyrazol-4-yl]phenyl]-1-methyl-imidazole-2-carboxamide; formate] | 1520 | 2.5 |  | 
Cc1nn(CC(=O)NC2CCC[N+](C)(C)C2)cc1-c1ccc(-c2cnc(C(=O)Nc3ccc(C(=O)N4CCN(C(=O)C5CC[N+](C)(C)CC5)CC4)c(Cl)c3)n2C)c(F)c1F (centres unmarked) [Example G24, N-[3-chloro-4-[4-(1,1-dimethylpiperidin-1-ium-4-carbonyl)piperazine-1-carbonyl]phenyl]-5-[4-[1-[2-[0,1-dimethylpiperidin-1-ium-3-yl)amino]-2-oxo-ethyl]-3-methyl-pyrazol-4-yl]-2,3-difluoro-phenyl]-1-methyl-imidazole-2-carboxamide; diformate] |  |  | 508 | 3.85
COCCn1cc(-c2ccc(-c3cnc(C(=O)Nc4ccc(C(=O)N5CCN(C(=O)C[N+]6(C)CCC(O)(CO)CC6)CC5)c(Cl)c4)n3C)c(F)c2F)c(C)n1 (centres unmarked) [Example D18, N-[3-chloro-4-[4-[2-[4-hydroxy-4-(hydroxymethyl)-1-methyl-piperidin-1-ium-1-yl]acetyl]piperazine-1-carbonyl]phenyl]-5-[2,3-difluoro-4-[1-(2-methoxyethyl)-3-methyl-pyrazol-4-yl]phenyl]-1-methyl-imidazole-2-carboxamide; formate] | 58 | 1.23 |  | 

The next lines start with results.

IC90 [1, 3] [nM] | MIC [2, 4] [µM] | SMILES | IC90 [1] [nM] | MIC [2, 5] [µM]
608 | 2.41 | COc1ccc(-c2[nH]ncc2-c2ccc(-c3cnc(C(=O)Nc4ccc(C(=O)N5CCN(C(=O)C6CC[N+](C)(C)CC6)CC5)c(Cl)c4)n3C)c(F)c2F)cc1 [Example I2, N-[3-chloro-4-[4-(1,1-dimethylpiperidin-1-ium-4-carbonyl)piperazine-1-carbonyl]phenyl]-5-[2,3-difluoro-4-[5-(4-methoxyphenyl)-1H-pyrazol-4-yl]phenyl]-1-methyl-imidazole-2-carboxamide; formate] |  | 
398 | 1.81 | COc1cccc(-c2[nH]ncc2-c2ccc(-c3cnc(C(=O)Nc4ccc(C(=O)N5CCN(C(=O)C6CC[N+](C)(C)CC6)CC5)c(Cl)c4)n3C)c(F)c2F)c1 [Example I3, N-[3-chloro-4-[4-(1,1-dimethylpiperidin-1-ium-4-carbonyl)piperazine-1-carbonyl]phenyl]-5-[2,3-difluoro-4-[5-(3-methoxyphenyl)-1H-pyrazol-4-yl]phenyl]-1-methyl-imidazole-2-carboxamide; formate] |  | 
 | 2.57 | Cc1nn(CC(=O)NC2CCCCO2)cc1-c1ccc(-c2cnc(C(=O)Nc3ccc(C(=O)N4CCN(C(=O)C5CC[N+](C)(C)CC5)CC4)c(Cl)c3)n2C)c(F)c1F (centres unmarked) [Example G21, N-[3-chloro-4-[4-(1,1-dimethylpiperidin-1-ium-4-carbonyl)piperazine-1-carbonyl]phenyl]-5-[2,3-difluoro-4-[3-methyl-1-[2-oxo-2-(tetrahydropyran-2-ylamino)ethyl]pyrazol-4-yl]phenyl]-1-methyl-imidazole-2-carboxamide; formate] |  | 
185 | 0.66 | CO[C@H]1CCCC[C@@H]1NC(=O)Cn1cc(-c2ccc(-c3cnc(C(=O)Nc4ccc(C(=O)N5CCN(C(=O)C6CC[N+](C)(C)CC6)CC5)c(Cl)c4)n3C)c(F)c2F)c(C)n1 (racemic) [Example G32, N-[3-chloro-4-[4-(1,1-dimethylpiperidin-1-ium-4-carbonyl)piperazine-1-carbonyl]phenyl]-5-[2,3-difluoro-4-[1-[2-[[(1S,2S)-2-methoxycyelohexyl]amino]-2-oxo-ethyl]-3-methyl-pyrazol-4-yl]phenyl]-1-methyl-imidazole-2-carboxamide; formate] |  | 
 | 0.32 | Cc1nn(CC(=O)Nc2ccccc2)cc1-c1ccc(-c2cnc(C(=O)Nc3ccc(C(=O)N4CCN(C(=O)C5CC[N+](C)(C)CC5)CC4)c(Cl)c3)n2C)c(F)c1F [Example G5, 5-[4-[1-(2-anilino-2-oxo-ethyl)-3-methyl-pyrazol-4-yl]-2,3-difluoro-phenyl]-N-[3-chloro-4-[4-(1,1-dimethylpiperidin-1-ium-4-carbonyl)piperazine-1-carbonyl]phenyl]-1-methyl-imidazole-2-carboxamide; formate] |  | 
 | 0.58 | Cn1c(-c2ccc(-c3cn[nH]c3-c3cscn3)c(F)c2F)cnc1C(=O)Nc1ccc(C(=O)N2CCN(C(=O)C3CC[N+](C)(C)CC3)CC2)c(Cl)c1 [Example I5, N-[3-chloro-4-[4-(1,1-dimethylpiperidin-1-ium-4-carbonyl)piperazine-1-carbonyl]phenyl]-5-[2,3-difluoro-4-(5-thiazol-4-yl-1H-pyrazol-4-yl)phenyl]-1-methyl-imidazole-2-carboxamide; formate] |  | 
